“Also recorded” adds a separate entry of the source.
Tests used:
[1] = system: CFA-induced thermal hyperalgesia; experiment: Hargreaves plantar test, CFA-induced thermal hyperalgesia; assay type: in vivo, rat; conditions: 20 µM; for period after intraplantar injection in which antinociceptive effect was observed: inflamed hindpaw
Method: To induce chronic inflammatory hyperalgesia, rats were injected with complete Freund’s adjuvant (CFA, 100 μl of 50% solution) into the plantar surface of the right hindpaw 24 h prior to testing. Control animals were injected with 100 μl of pure saline. Injections of AppCH2ppA and AppNHppA (100 nM–100 μM) in 100 μl of 0.9% saline were made just before the beginning of the plantar test.
For intrathecal injection, a polyethylene-10 catheter was inserted into the rat’s subarachnoid space through a small incision at the cisterna magna, and the tip of the catheter was implanted at the L4 spinal segmental level. Animals were allowed to recover for at least four days before behavior tests. AppCH2ppA or vehicle (saline) was injected intrathecally (10 µl) and flushed with 10 µl of saline.
The Hargreaves technique[51] was used for thermal hyperalgesia studies (using the Ugo Basile Model 7370 Plantar Test). Paw withdrawal responses to noxious heat stimuli were measured in rats as described.[52] To measure response to noxious heat stimuli, each animal was placed in a Plexiglas chamber on a glass plate located above a light box. Radiant heat was applied by focused infrared (IR) beam to the middle of the plantar surface of rat hindpaw. When the animal lifted its foot, the IR beam was turned off. The time interval between the start of the IR beam and the foot lift was defined as the paw withdrawal latency. Each trial was repeated 13 times at 20-min intervals for each paw. A cut-off time of 30 s was used to prevent paw tissue damage.
Figure 10. Ap4A analogs reduced thermal hyperalgesia induced by complete Freund adjuvant (CFA) (Hargreaves plantar test). (a) Time course of the effects of subcutaneous injection of AppCH2ppA (20 µM) and AppNHppA (20 µM) on the paw withdrawal latency (PWL). […] (b) Bar graphs illustrating the effects of AppCH2ppA (20 µM) and AppNHppA (20 µM) on PWL. (c) Time course of effects of intraplantar and intrathecal administration of AppCH2ppA (20 µM) on PWL. […] (d) Bar graphs illustrating effects of intathecal and intraplantar administration of AppCH2ppA (20 µM) on the PWL (* vs. CFA, p < 0.05; *** vs. CFA, p < 0.001; ### vs. intrathecal, p < 0.001; seven rats for control, eight rats for CFA, six rats for intrathecal, and six rats for each compound for intraplantar injection were used).

rat P2X7 receptors = molecular target: T1, rat P2X7 receptors (Rattus norvegicus, UniProt Q64663); experiment: Whole-cell patch clamp on HEK293 cells expressing rat P2X7 receptors (ATP-induced currents); assay type: cell-based; conditions: 1 µM; 10 µM ATP every 2 min
T1 construct: expressed in transfected cells; host or cells: HEK293
T1 sequence (Q64663 1-595): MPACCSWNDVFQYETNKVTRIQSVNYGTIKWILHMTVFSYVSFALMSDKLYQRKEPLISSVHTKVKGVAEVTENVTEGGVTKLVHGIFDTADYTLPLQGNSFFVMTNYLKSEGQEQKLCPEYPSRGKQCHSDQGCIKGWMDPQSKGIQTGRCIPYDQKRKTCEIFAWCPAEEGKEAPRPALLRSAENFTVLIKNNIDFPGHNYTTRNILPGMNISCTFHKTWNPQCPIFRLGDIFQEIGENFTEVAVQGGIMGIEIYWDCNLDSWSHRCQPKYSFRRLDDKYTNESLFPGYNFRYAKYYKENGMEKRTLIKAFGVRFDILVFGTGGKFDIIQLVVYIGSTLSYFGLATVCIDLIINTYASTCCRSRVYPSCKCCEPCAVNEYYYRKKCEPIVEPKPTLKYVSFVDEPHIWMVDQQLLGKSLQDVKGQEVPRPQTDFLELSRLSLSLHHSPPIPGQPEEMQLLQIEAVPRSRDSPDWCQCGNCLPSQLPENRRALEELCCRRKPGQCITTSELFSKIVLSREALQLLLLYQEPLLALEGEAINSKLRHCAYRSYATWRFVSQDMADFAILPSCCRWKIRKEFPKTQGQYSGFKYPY

SMILES	duration of antinociceptive effect, intraplantar ([1]; intraplantar) [min]	pain inhibition, intraplantar administration ([1]; intraplantar) [%]	time after intraplantar injection at which effect became potent ([1]; intraplantar) [min]	period after intraplantar injection in which antinociceptive effect was observed ([1]; intraplantar) [min]	duration of antinociceptive effect, intrathecal ([1]; intrathecal) [min]	pain inhibition, intrathecal administration ([1]; intrathecal) [%]	time after intrathecal injection at which effects were observed ([1]; intrathecal) [min]	HAD or partial agonism effect on P2X7R-mediated currents (rat P2X7 receptors)
Nc1ncnc2c1ncn2[C@@H]1O[C@H](COP(=O)(O)OP(=O)(O)CP(=O)(O)OP(=O)(O)OC[C@H]2O[C@@H](n3cnc4c(N)ncnc43)C(O)C2O)C(O)C1O (stereo partly drawn) [AppCH2ppA, diadenosine 5′,5′′′-P^1,P^4-(β,γ-methylene)tetraphosphate]	180	58	20	≤ 200	60	22	120	
Nc1ncnc2c1ncn2[C@@H]1O[C@H](COP(=O)(O)OP(=O)(O)NP(=O)(O)OP(=O)(O)OC[C@H]2O[C@@H](n3cnc4c(N)ncnc43)[C@H](O)[C@@H]2O)[C@@H](O)[C@H]1O [AppNHppA, diadenosine 5′,5′′′-P^1,P^4-(β,γ-imido)tetraphosphate]	180		20	≤ 200				did not produce any HAD or partial agonism effects; also recorded: does not inhibit

— PMC4955970, “Stable, synthetic analogs of diadenosine tetraphosphate inhibit rat and human P2X3 receptors and inflammatory pain” (Molecular Pain, 2016)
